# US20090098139A1, “Combination therapy for the treatment of neovascular disorders” (priority 2006, published 2009)
# Legend:
# [1] = tested on: animal counterpart of isoform 121; assay: preclinical binding to VEGF isoform 121 counterpart; settings: preclinical in vitro and animal studies
# [2] = tested on: normal vessels of the retina; assay: animal study, direct comparison with a VEGF inhibitor that blocks all isoforms: normal retinal vessels; format: in vivo; settings: the pan-VEGF isoform inhibitor comparator altered their growth and survival
# [3] = tested on: animal counterpart of isoform 165; assay: preclinical animal studies: abnormal blood vessel growth in the retina; format: in vivo; settings: binding to animal counterpart of VEGF isoform 165
substance,measurement,setting,value
pegaptanib sodium [Macugen],binding with the animal counterpart of isoform 121,[1],did not bind with the animal counterpart of isoform 121 to any significant degree
same,effect on the normal vessels of the retina,[2],did not affect the normal vessels of the retina
same,inhibition of abnormal blood vessel growth in the retina,[3],highly effective in inhibiting abnormal blood vessel growth in the retina
